Results as given in patent US4358441A, “Nicotinic derivatives of glucosamine and related pharmaceutical compositions” (Laboratorio Guidotti & C. S.p.A., priority 1980, dated 1982).

Columns and labels:
[1] = system: plasma levels of triglycerides; assay: Effect of oral administration on plasma levels of triglycerides in the empty rat; type: in vivo, rat (COBS CD (SD) BR male); conditions: Table 5, 100 mg/kg oral referred to nicotinic acid, empty rat
[2] = system: plasma levels of cholesterol; assay: Effect of oral administration on plasma levels of cholesterol in the empty rat; type: in vivo, rat (COBS CD (SD) BR male); conditions: Table 5, 100 mg/kg oral referred to nicotinic acid, empty rat
Solubility = type: physicochemical
plasma levels of FFA = assay: Effect of oral administration on plasma levels of FFA in the empty rat; conditions: Table 5, 100 mg/kg oral referred to nicotinic acid, empty rat

SMILES | Percent variations of plasma triglycerides with respect to the control ([1]; 2 h) [%] | Percent variations of plasma triglycerides with respect to the control ([1]; 4 h) [%] | Percent variations of plasma triglycerides with respect to the control ([1]; 8 h) [%] | Percent variations of plasma cholesterol with respect to the control ([2]; 4 h) [%] | Percent variations of plasma cholesterol with respect to the control ([2]; 8 h) [%] | Percent variations of plasma cholesterol with respect to the control ([2]; 24 h) [%] | Solubility (Solubility) | Percent variations of plasma FFA with respect to the control (plasma levels of FFA; 2 h) [%] | Percent variations of plasma FFA with respect to the control (plasma levels of FFA; 4 h) [%] | Percent variations of plasma FFA with respect to the control (plasma levels of FFA; 8 h) [%]
N[C@H]1C(OC(=O)c2cccnc2)O[C@H](COC(=O)c2cccnc2)[C@@H](OC(=O)c2cccnc2)[C@@H]1OC(=O)c1cccnc1 (stereo partly drawn) [glucosamine tetranicotinate, Glucosamine tetranicotinate] | -54 | -53 | -82 | -16 | -26 | -59 | soluble in the common organic solvents and in acid solutions | -70 | -48 | -65
O=C(N[C@H]1[C@@H](OC(=O)c2cccnc2)O[C@H](COC(=O)c2cccnc2)[C@@H](OC(=O)c2cccnc2)[C@@H]1OC(=O)c1cccnc1)c1cccnc1 [α, α-N-nicotinoyl-glucosamine tetranicotinate] | -56 | -68 | -47 | -4 | -12 | -44 | soluble in the common non-polar organic solvents | -64 | -13 | -7
O=C(N[C@H]1[C@H](OC(=O)c2cccnc2)O[C@H](COC(=O)c2cccnc2)[C@@H](OC(=O)c2cccnc2)[C@@H]1OC(=O)c1cccnc1)c1cccnc1 [β, β-N-nicotinoyl-glucosamine tetranicotinate] | -53 | -77 | -69 | -2 | -17 | -43 | slightly soluble in acetone, ethanol and chloroform, but soluble in dilute acids | -67 | -30 | -44
